# Reference: patent US11524966B1 (Valo Early Discovery, Inc., priority 2017, dated 2022)
# Target: T1, USP28 (USP28-5(1-1077)-TEV-6*His; LifeSensors) (Homo sapiens, UniProt Q96RU2)
# T1 construct: construct USP28 (USP28-5(1-1077)-TEV-6*His; LifeSensors); TEV cleavage site (C); 6xHis (C); purchased LifeSensors
# T1 sequence (Q96RU2 1-1077): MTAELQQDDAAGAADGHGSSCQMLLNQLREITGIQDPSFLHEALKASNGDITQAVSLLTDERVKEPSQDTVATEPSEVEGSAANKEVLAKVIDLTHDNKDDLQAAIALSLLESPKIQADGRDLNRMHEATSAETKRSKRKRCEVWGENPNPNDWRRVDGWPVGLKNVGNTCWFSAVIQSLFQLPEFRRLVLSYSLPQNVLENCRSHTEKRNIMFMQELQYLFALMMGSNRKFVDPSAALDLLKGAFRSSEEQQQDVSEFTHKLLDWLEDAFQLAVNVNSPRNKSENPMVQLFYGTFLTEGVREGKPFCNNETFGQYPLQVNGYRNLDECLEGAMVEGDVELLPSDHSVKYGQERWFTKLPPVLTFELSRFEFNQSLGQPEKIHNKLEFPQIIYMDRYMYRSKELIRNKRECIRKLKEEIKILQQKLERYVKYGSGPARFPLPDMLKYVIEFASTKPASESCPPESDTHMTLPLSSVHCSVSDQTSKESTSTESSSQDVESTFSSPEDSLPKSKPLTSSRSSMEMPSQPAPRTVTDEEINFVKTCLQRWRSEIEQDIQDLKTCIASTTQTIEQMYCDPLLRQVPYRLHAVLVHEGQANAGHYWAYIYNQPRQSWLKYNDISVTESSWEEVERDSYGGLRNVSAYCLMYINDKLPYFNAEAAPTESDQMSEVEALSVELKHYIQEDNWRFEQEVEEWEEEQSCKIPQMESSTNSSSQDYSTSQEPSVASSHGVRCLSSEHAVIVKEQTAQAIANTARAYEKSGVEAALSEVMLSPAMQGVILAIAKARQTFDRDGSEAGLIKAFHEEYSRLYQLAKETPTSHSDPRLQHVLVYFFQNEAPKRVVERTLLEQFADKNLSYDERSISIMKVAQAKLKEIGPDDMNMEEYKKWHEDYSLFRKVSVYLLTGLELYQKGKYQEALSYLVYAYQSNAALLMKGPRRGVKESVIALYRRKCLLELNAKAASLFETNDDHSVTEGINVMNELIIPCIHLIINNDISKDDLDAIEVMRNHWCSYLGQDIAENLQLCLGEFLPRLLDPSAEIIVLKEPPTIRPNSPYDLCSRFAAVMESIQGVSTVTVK
# Assay: Ubiquitin-Rhodamine 110 Assay for USP28 Activity, Example A-1(b)
# Assay type: biochemical
# Conditions: Ubiquitin-Rhodamine 110 assay, Example A-1(b)
# Outline: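 Single-point screening used 10 μM compound with 90 min room-temperature incubation; follow-up dose-responses (25 μM top, 3-fold) used 75 pM USP28 1-1077 construct, 30 min compound preincubation, 25 nM Ub-Rh110, 20 min reaction, citric acid quench. Rh110 fluorescence normalised to no-enzyme and DMSO controls; IC50 from 4-parameter logistic fit.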
row,SMILES,USP28 A-1(b) IC50 range
1,"Cc1ccc2c(N)c(C(=O)N[C@H]3COc4cc(N5C[C@H](N)[C@@H](F)C5)ccc4C3)sc2n1 [Example 3-7, 3-amino-N-((R)-7-((3S,4S)-3-amino-4-fluoropyrrolidin-1-yl)chroman-3-yl)-6-methylthieno[2,3-b]pyridine-2-carboxamide]",++ (0.2-2 μM)
2,"Cc1ccc2c(N)c(C(=O)N[C@H]3COc4cc(N5C[C@@H](N)[C@H](F)C5)ccc4C3)sc2n1 [Example 3-8, 3-amino-N-((R)-7-((3R,4R)-3-amino-4-fluoropyrrolidin-1-yl)chroman-3-yl)-6-methylthieno[2,3-b]pyridine-2-carboxamide]",++ (0.2-2 μM)
3,"Cc1ccc2c(N)c(C(=O)N[C@H]3COc4cc(N5CCN[C@@H](C(F)(F)F)C5)ccc4C3)sc2n1 [Example 3-11, 3-amino-6-methyl-N-((R)-7-((R)-3-(trifluoromethyl)piperazin-1-yl)chroman-3-yl)thieno[2,3-b]pyridine-2-carboxamide]",++ (0.2-2 μM)
4,"Cc1ccc2c(N)c(C(=O)N[C@H]3COc4cc(N5CCN[C@H](C(F)(F)F)C5)ccc4C3)sc2n1 [Example 3-12, 3-amino-6-methyl-N-((R)-7-((S)-3-(trifluoromethyl)piperazin-1-yl)chroman-3-yl)thieno[2,3-b]pyridine-2-carboxamide]",++ (0.2-2 μM)
5,"Cc1ccc2c(N)c(C(=O)N[C@H]3COc4cc(N5CC[C@]6(CCCNC6)C5)ccc4C3)sc2n1 [Example 3-13, N-((R)-7-((S)-2,7-diazaspiro[4.5]decan-2-yl)chroman-3-yl)-3-amino-6-methylthieno[2,3-b]pyridine-2-carboxamide]",+++ (0.05-0.2 μM)
6,"Cc1ccc2c(N)c(C(=O)N[C@H]3COc4cc(N5CC[C@@]6(CCCNC6)C5)ccc4C3)sc2n1 [Example 3-14, N-((R)-7-((R)-2,7-diazaspiro[4.5]decan-2-yl)chroman-3-yl)-3-amino-6-methylthieno[2,3-b]pyridine-2-carboxamide]",+++ (0.05-0.2 μM)
7,"Cc1ccc2c(N)c(C(=O)N[C@H]3COc4cc(N5CCC(F)(F)CC5)ccc4C3)sc2n1 [Example 5-1, (R)-3-amino-N-(7-(4,4-difluoropiperidin-1-yl)chroman-3-yl)-6-methylthieno[2,3-b]pyridine-2-carboxamide]",++++ (0.001-0.05 μM)
8,"Cc1ccc2c(N)c(C(=O)N[C@H]3COc4cc(N5CCS(=O)(=O)CC5)ccc4C3)sc2n1 [Example 5-2, (R)-3-amino-N-(7-(1,1-dioxidothiomorpholino)chroman-3-yl)-6-methylthieno[2,3-b]pyridine-2-carboxamide]",+++ (0.05-0.2 μM)
9,"Cc1ccc2c(N)c(C(=O)N[C@H]3COc4cc(N5CC(O)(C(F)(F)F)C5)ccc4C3)sc2n1 [Example 5-3, (R)-3-amino-N-(7-(3-hydroxy-3-(trifluoromethyl)azetidin-1-yl)chroman-3-yl)-6-methylthieno[2,3-b]pyridine-2-carboxamide]",+++ (0.05-0.2 μM)
10,"Cc1ccc2c(N)c(C(=O)N[C@H]3COc4cc(N5CC6COCC(C5)C6(F)F)ccc4C3)sc2n1 [Example 5-4, 3-amino-N-((3R)-7-(9,9-difluoro-3-oxa-7-azabicyclo[3.3.1]nonan-7-yl)chroman-3-yl)-6-methylthieno[2,3-b]pyridine-2-carboxamide]",+++ (0.05-0.2 μM)
11,"Cc1ccc2c(N)c(C(=O)N[C@H]3COc4cc(N5CCC(C(=O)O)CC5)ccc4C3)sc2n1 [Example 6-1, (R)-1-(3-(3-Amino-6-methylthieno[2,3-b]pyridine-2-carboxamido)chroman-7-yl)piperidine-4-carboxylic Acid]",++ (0.2-2 μM)
12,"Cc1ccc2c(N)c(C(=O)N[C@H]3COc4cc(N5CC[C@@H](C(=O)O)C5)ccc4C3)sc2n1 [Example 6-2, (R)-1-((R)-3-(3-amino-6-methylthieno[2,3-b]pyridine-2-carboxamido)chroman-7-yl)pyrrolidine-3-carboxylic acid]",++ (0.2-2 μM)
13,"Cc1ccc2c(N)c(C(=O)N[C@H]3COc4cc(N5CC[C@H](C(=O)O)C5)ccc4C3)sc2n1 [Example 6-3, (S)-1-((R)-3-(3-amino-6-methylthieno[2,3-b]pyridine-2-carboxamido)chroman-7-yl)pyrrolidine-3-carboxylic acid]",++ (0.2-2 μM)
14,"Cc1cnc2c(N)c(C(=O)N[C@H]3CCc4cc(N5CC(C(=O)O)C5)ccc4C3)sc2n1 [Example 6-4, (S)-1-(6-(7-amino-3-methylthieno[2,3-b]pyrazine-6-carboxamido)-5,6,7,8-tetrahydronaphthalen-2-yl)azetidine-3-carboxylic acid]",+ (>2 μM)
15,"Cc1ccc2c(N)c(C(=O)N[C@H]3COc4cc(N5CCC(O)CC5)ccc4C3)sc2n1 [Example 7-1, (R)-3-amino-N-(7-(4-hydroxypiperidin-1-yl)chroman-3-yl)-6-methylthieno[2,3-b]pyridine-2-carboxamide]",+++ (0.05-0.2 μM)
16,"COC[C@@H]1CN(c2ccc3c(n2)OC[C@H](NC(=O)c2sc4nc(C)cc(C)c4c2N)C3)C[C@@H]1N [Example 348, 3-amino-N-[(3R)-7-[(3R,4R)-3-amino-4-(methoxymethyl)pyrrolidin-1-yl]-2H,3H,4H-pyrano[2,3-b]pyridin-3-yl]-4,6-dimethylthieno[2,3-b]pyridine-2-carboxamide]",+ (>2 μM)
17,"Cc1ccc2c(N)c(C(=O)N[C@H]3CCc4nc(N5C[C@@H](N)[C@H](C(F)(F)F)C5)ccc4C3)sc2n1 [Example 364, 3-amino-N-[(6S)-2-[(3S,4R)-3-amino-4-(trifluoromethyl)pyrrolidin-1-yl]-5,6,7,8-tetrahydroquinolin-6-yl]-6-methylthieno[2,3-b]pyridine-2-carboxamide]",+ (>2 μM)
18,"Cc1cnc2c(N)c(C(=O)N[C@H]3CCc4cc(N5CC6CNCC(C5)O6)ccc4C3)sc2n1 [Example 448, N-((2S)-6-(9-oxa-3,7-diazabicyclo[3.3.1]nonan-3-yl)-1,2,3,4-tetrahydronaphthalen-2-yl)-7-amino-3-methylthieno[2,3-b]pyrazine-6-carboxamide]",++ (0.2-2 μM)
19,"Cc1cnc2c(N)c(C(=O)N[C@@H]3CCc4cc(N5CC6CNCC(C5)O6)ccc4C3)sc2n1 [Example 450, N-((2R)-6-(9-oxa-3,7-diazabicyclo[3.3.1]nonan-3-yl)-1,2,3,4-tetrahydronaphthalen-2-yl)-7-amino-3-methylthieno[2,3-b]pyrazine-6-carboxamide]",+ (>2 μM)
20,"Cc1ccc2c(N)c(C(=O)N[C@@H]3CCc4cc(N5CC6CNCC(C5)O6)ccc4C3)sc2n1 [Example 451, N-((2R)-6-(9-oxa-3,7-diazabicyclo[3.3.1]nonan-3-yl)-1,2,3,4-tetrahydronaphthalen-2-yl)-3-amino-6-methylthieno[2,3-b]pyridine-2-carboxamide]",++ (0.2-2 μM)
21,"Cc1cnc2c(N)c(C(=O)N[C@@H]3CCc4cc(N5CCCNCC5)ccc4C3)sc2n1 [Example 452, (R)-N-(6-(1,4-diazepan-1-yl)-1,2,3,4-tetrahydronaphthalen-2-yl)-7-amino-3-methylthieno[2,3-b]pyrazine-6-carboxamide]",+ (>2 μM)
22,"Cc1cnc2c(N)c(C(=O)N[C@H]3CCc4cc(N5CCCNCC5)ccc4C3)sc2n1 [Example 455, (S)-N-(6-(1,4-diazepan-1-yl)-1,2,3,4-tetrahydronaphthalen-2-yl)-7-amino-3-methylthieno[2,3-b]pyrazine-6-carboxamide]",++ (0.2-2 μM)
23,"Cc1cnc2c(N)c(C(=O)N[C@H]3CCc4cc(N5CC6COCC(C5)N6)ccc4C3)sc2n1 [Example 456, N-((2S)-6-(3-oxa-7,9-diazabicyclo[3.3.1]nonan-7-yl)-1,2,3,4-tetrahydronaphthalen-2-yl)-7-amino-3-methylthieno[2,3-b]pyrazine-6-carboxamide]",++ (0.2-2 μM)
24,"CC(=O)N1CCCc2cc(C(=O)N[C@H]3COc4cc(N5CCNCC5)ccc4C3)ccc21 [Example 459, (R)-1-acetyl-N-(7-(piperazin-1-yl)chroman-3-yl)-1,2,3,4-tetrahydroquinoline-6-carboxamide]",+ (>2 μM)
